Reference: patent US4657927A, “Malonato platinum compounds” (Research Corporation, priority 1983, dated 1987)

Key:
[1] = tested on: L1210; test: Confirmatory antitumor test at the National Cancer Institute, L1210 (Table IV); assay type: in vivo, Mice
From the text: Samples of the malonato diammine and malonato ethylene diamine complexes of platinum(II) were submitted to the Drug Research and Development Branch of the National Cancer Institute for screening for antitumor activity against the L1210 tumor in mice. They confirm the activity of the compounds of the invention.

[2] = Hydrolysis by U.V./vis spectral and conductivity studies; assay type: physicochemical; settings: recrystallization from boiling water with malonic acid
From the text: *U.V./via spectral and conductivity studies have shown that hydrolysis is negligible.

[3] = tested on: Sarcoma 180; test: Antitumor activity, solid sarcoma 180 tumor, T/C of tumor weights at day 10 (Table I); assay type: in vivo, female Swiss white mice
Experimental: The compounds of the invention were tested for antitumor activity, i.e., for sensitivity to a planar dsp^2 platinum(II) coordination compound or an octahedral d^2 sp^3 platinum(IV) coordination compound using our standard screening tumor, solid sarcoma 180 tumor in female Swiss white mice, following standard protocols for this testing as set by the National Cancer Institute. (Cancer Chemotherapy Rep., 25 (1962)).
For these tests an S 180 tumor taken from a sacrificed mouse was disected free of superfluous tissue and cut under sterile conditions into approximately 10 milligram size pieces. These tissue pieces were then implanted by trocar in the left axillary region, subcutaneously, in new mice. The mice were, on the average, approximately four weeks old and weighed 18-20 grams. Taking day 0 as the day of implant, the animals were sacrificed on day 10. The tumors were excised and weighed and the ratio of the weights of the tumors in mice in the treated animals to the control set of animals was obtained. This ratio, multiplied by 100, is given as the T/C ratio in Table I.
For the first set of tests the coordination compound was freshly dissolved in sterile distilled water and injected intraperitoneally on day 1 into each of the test mice. The volume of the injection was usually 1/2 ml. In some cases, in order to get an active dose into the animal where the chemical was not soluble in this amount of solvent, a fine dispersion was prepared of the dose needed for the test. Thus, some of our test results were obtained on animals where a slurry of the compound was injected. These are so noted in Table I below. In addition, for some of the compounds, there was injected about 1 ml of solution, either in one single injection, or in 2 injections given a few hours apart of 1/2 ml each. These injections were initially given in 4 different dose levels for each new compound with 6 mice in each dose level. The tests covered a dose range from a low ineffective dose, to an upper dose level which produced some deaths within the time period of the experiment.

[4] = tested on: Sarcoma 180; test: Large Sarcoma 180 regressions, injection on day 8 (Table II); assay type: in vivo, female Swiss white mice; settings: single i.p. injection on day 8, H2O solution
Experimental: In addition to the day 1 injections described above, in a number of case injections were delayed until day 8 of tumor growth. In these cases the tumor was usually at least larger than 1/2 gm, as estimated by palpation. The animals were then injected and observed for a period of approximately 60 days. Activity was measured by the number of animals whose tumors had regressed to the vanishing point, while still allowing the animal to survive for this time period. Such test results are described in TABLE II below.

[5] = tested on: Walker 256 Carcinosarcoma; test: Confirmatory antitumor test, Walker 256 Carcinosarcoma (Table III); assay type: in vivo, Rat; settings: single injection day 1 in oil, i.p.
Experimental: (§1) Confirmatory tests of antitumor activity against the Walker 256 Carcinosarcoma in rats, and the ADJ/PC6A tumor in mice were conducted. The initial test results are shown in Table III and confirm the potent action of the compounds of the invention against these other tumor systems.

[6] = tested on: ADJ/PC6A; test: Confirmatory antitumor test, ADJ/PC6A tumor (Table III); assay type: in vivo, Mouse; settings: single injection day 25 in oil, i.p.
Experimental: as §1

[7] = 12.5 mg/kg, daily injections days 1-9, i.p.
[8] = 25 mg/kg, daily injections days 1-9, i.p.
[9] = 50 mg/kg, daily injections days 1-9, i.p.
[10] = 10 mg/kg, single i.p. injection day 1, slurry in H2O
[11] = 15 mg/kg, single i.p. injection day 1, slurry in H2O
[12] = 20 mg/kg, single i.p. injection day 1, slurry in H2O
[13] = 25 mg/kg, single i.p. injection day 1, slurry in H2O
[14] = 30 mg/kg, single i.p. injection day 1, slurry in H2O
[15] = 50 mg/kg, single i.p. injection day 1, slurry in H2O
[16] = 10 mg/kg, single i.p. injection day 1, solution in H2O
[17] = 20 mg/kg, single i.p. injection day 1, solution in H2O
[18] = 40 mg/kg, single i.p. injection day 1, solution in H2O
[19] = 45 mg/kg, single i.p. injection day 1, solution in H2O
[20] = 50 mg/kg, single i.p. injection day 1, solution in H2O
[21] = 55 mg/kg, single i.p. injection day 1, solution in H2O
[22] = 60 mg/kg, single i.p. injection day 1, solution in H2O
[23] = 80 mg/kg, single i.p. injection day 1, solution in H2O
[24] = dose level 60 (unit not given), single i.p. injection day 1
[25] = dose level 100 (unit not given), single i.p. injection day 1
[26] = dose level 120 (unit not given), single i.p. injection day 1

O=C(O)CC(=O)O.[NH2-].[NH2-].[Pt+2] [Malonatodiammineplatinum (II), Malonatodiammineplatinum(II)]
% Increase in Lifespan [1, 7]: 115% | % Increase in Lifespan [1, 8]: 133% | % Increase in Lifespan [1, 9]: 163% | hydrolysis [2]: negligible | No. of Deaths [3, 10]: 0 | T/C [3, 10]: 76 | No. of Deaths [3, 11]: 0 | T/C [3, 11]: 38 | No. of Deaths [3, 12]: 0 | T/C [3, 12]: 64 | No. of Deaths [3, 13]: 0 | T/C [3, 13]: 31 | No. of Deaths [3, 14]: 1/6 | T/C [3, 14]: 7 | No. of Deaths ([3]; 40 mg/kg, single i.p. injection day 1, slurry in H2O): 6/6 | No. of Deaths [3, 15]: 5/6 | T/C [3, 15]: 1 | No. of Deaths ([3]; 60 mg/kg, single i.p. injection day 1, slurry in H2O): 6/6 | Deaths ([4]; 14 mg/kg): 4 | Total Number of Regressions ([4]; 14 mg/kg): 2 | Deaths ([4]; 16 mg/kg): 3 | Total Number of Regressions ([4]; 16 mg/kg): 3 | Deaths ([4]; 18 mg/kg): 2 | Total Number of Regressions ([4]; 18 mg/kg): 4 | Deaths ([4]; 20 mg/kg): 1 | Total Number of Regressions ([4]; 20 mg/kg): 5

NCCN.O=C([O-])CC(=O)[O-].[Pt+2] [malonatoethylenediamineplatinum (II)]
% Inhibition ([5]; dose 10 (unit not given)): 1% | Deaths ([5]; dose 10 (unit not given)): 0 | % Inhibition ([5]; dose 20 (unit not given)): 25% | Deaths ([5]; dose 20 (unit not given)): 0 | % Inhibition ([5]; dose 40 (unit not given)): 100% | Deaths ([5]; dose 40 (unit not given)): 0 | % Inhibition ([5]; dose 80 (unit not given)): 100% | Deaths ([5]; dose 80 (unit not given)): 0 | Deaths ([5]; dose 160 (unit not given)): all | % Inhibition ([6]; dose 4 (unit not given)): 1.3% | Deaths ([6]; dose 4 (unit not given)): 0 | % Inhibition ([6]; dose 20 (unit not given)): 94% | Deaths ([6]; dose 20 (unit not given)): 0 | % Inhibition ([6]; dose 100 (unit not given)): 100% | Deaths ([6]; dose 100 (unit not given)): 0 | Deaths ([6]; dose 500 (unit not given)): all | % Increase in Lifespan ([1]; 11 mg/kg, daily injections days 1-9, i.p. (repeat test)): 145% | % Increase in Lifespan [1, 7]: 151% | % Increase in Lifespan ([1]; 16.5 mg/kg, daily injections days 1-9, i.p. (repeat test)): 160% | % Increase in Lifespan [1, 8]: 160% | % Increase in Lifespan ([1]; 25 mg/kg, daily injections days 1-9, i.p. (repeat test)): 196% | % Increase in Lifespan ([1]; 37.5 mg/kg, daily injections days 1-9, i.p. (repeat test)): 121% | % Increase in Lifespan [1, 9]: 101% | No. of Deaths [3, 16]: 0 | T/C [3, 16]: 88 | No. of Deaths [3, 17]: 0 | T/C [3, 17]: 58 | No. of Deaths [3, 18]: 0 | T/C [3, 18]: 18 | No. of Deaths [3, 19]: 0 | T/C [3, 19]: 49 | No. of Deaths [3, 20]: 0 | T/C [3, 20]: 35 | No. of Deaths [3, 21]: 0 | T/C [3, 21]: 38 | No. of Deaths [3, 22]: 3/6 | T/C [3, 22]: 15 | No. of Deaths [3, 23]: 3/6 | T/C [3, 23]: 24 | No. of Deaths [3, 24]: 0 | T/C [3, 24]: 80 | No. of Deaths ([3]; dose level 80 (unit not given), single i.p. injection day 1): 0 | No. of Deaths [3, 25]: 0 | T/C [3, 25]: 85 | No. of Deaths [3, 26]: 0 | T/C [3, 26]: 50 | Deaths ([4]; 40 mg/kg): 3 | Total Number of Regressions ([4]; 40 mg/kg): 3 | Deaths ([4]; 45 mg/kg): 5 | Total Number of Regressions ([4]; 45 mg/kg): 1 | Deaths ([4]; 50 mg/kg): 4 | Total Number of Regressions ([4]; 50 mg/kg): 2 | Deaths ([4]; 60 mg/kg): 3 | Total Number of Regressions ([4]; 60 mg/kg): 3
